From the NIST ThermoML archive (doi:10.1021/acs.jced.9b00147)

Experiment: xn = mol fraction of the nth substance listed
Conditions: 101.3 kPa, Liquid; for speed of sound: Single path-length method; for mass density: Vibrating tube method

CC(=O)[O-].OCC[NH2+]CCO [2,2'-azanediylbis(ethanol) acetate] + CC(C)O
Conditions | mass density, 293.15 K [kg/m3] | mass density, 303.15 K [kg/m3] | mass density, 313.15 K [kg/m3] | mass density, 323.15 K [kg/m3] | speed of sound, 293.15 K [m/s] | speed of sound, 303.15 K [m/s] | speed of sound, 313.15 K [m/s] | speed of sound, 323.15 K [m/s]
x1 = 0.102 | 857.7 | 849.5 | 841.1 | 832.5 | 1233.4 | 1200.3 | 1167.1 | 1133.6
x1 = 0.2 | 915.4 | 907.6 | 899.4 | 891.4 | 1301.5 | 1269.6 | 1237.8 | 1205.8
x1 = 0.299 | 965.3 | 957.7 | 949.8 | 942.3 | 1372.4 | 1341.2 | 1310.1 | 1279.1
x1 = 0.398 | 1009 | 1001 | 993.2 | 986.6 | 1448.2 | 1416.7 | 1386.3 | 1355.2
x1 = 0.502 | 1048 | 1041 | 1034 | 1025 | 1530.5 | 1498.3 | 1468.4 | 1438.7
x1 = 0.59 | 1076 | 1069 | 1061 | 1056 | 1596.5 | 1561.8 | 1530.4 | 1498.8
x1 = 0.696 | 1109 | 1102 | 1095 | 1089 | 1675.3 | 1638.8 | 1607 | 1576.7
x1 = 0.799 | 1137 | 1131 | 1124 | 1118 | 1756.3 | 1717.6 | 1684.7 | 1653.8
x1 = 0.9 | 1162 | 1155 | 1149 | 1142 | 1828.4 | 1782.1 | 1746.8 | 1714.4
x1 = 1 | 1180 | 1173 | 1167 | 1160 | 1884.7 | 1828.2 | 1788.6 | 1756

CC(=O)[O-].OCC[NH2+]CCO [2,2'-azanediylbis(ethanol) acetate] + CCCO
Conditions | mass density, 293.15 K [kg/m3] | mass density, 303.15 K [kg/m3] | mass density, 313.15 K [kg/m3] | mass density, 323.15 K [kg/m3] | speed of sound, 293.15 K [m/s] | speed of sound, 303.15 K [m/s] | speed of sound, 313.15 K [m/s] | speed of sound, 323.15 K [m/s]
x1 = 0.096 | 869.5 | 861.6 | 853.5 | 845.4 | 1286.3 | 1253.5 | 1221.2 | 1188.8
x1 = 0.199 | 929 | 921.2 | 913.4 | 905.7 | 1352.7 | 1321 | 1289.8 | 1258.8
x1 = 0.295 | 975 | 967.5 | 959.9 | 952 | 1415.2 | 1384.2 | 1353.6 | 1323.1
x1 = 0.4 | 1018 | 1012 | 1004 | 996.6 | 1488.2 | 1457.2 | 1427.3 | 1397.4
x1 = 0.501 | 1054 | 1047 | 1040 | 1033 | 1556.5 | 1524.7 | 1494.6 | 1465.4
x1 = 0.599 | 1085 | 1078 | 1072 | 1065 | 1626.4 | 1590.7 | 1559.2 | 1529.2
x1 = 0.697 | 1113 | 1106 | 1099 | 1093 | 1701.1 | 1657.4 | 1623.2 | 1592.3
x1 = 0.801 | 1137 | 1131 | 1124 | 1118 | 1756.5 | 1720.1 | 1688.9 | 1659.2
x1 = 0.901 | 1160 | 1153 | 1146 | 1140 | 1817.8 | 1772.9 | 1738.1 | 1707.4
x1 = 1 | 1180 | 1173 | 1167 | 1160 | 1884.7 | 1828.2 | 1788.6 | 1756
